Several values for one entry are separate records, joined by “and”; a condition that tells them apart may be missing. Equal entries are not always repeated. Values belong to the compound of their own block, whether it stands above or below them.
What was measured:
BT474 tumors = assay: Implantable device assay: apoptosis (cleaved caspase 3) after device delivery in BT474 tumors; type: in vivo, mice; details: for apoptotic index (AI): device-delivery, 24 hours post implantation; for increase of apoptosis by addition to microwells preloaded with doxorubicin: 24 hours, vs doxorubicin alone
Protocol: (§1) Doxorubicin was loaded into a microwell in the implantable device. The device was implanted into tumor tissue. This was repeated for three different murine human cell tumor models (BT474, PC3, A375). After implantation for 20 hours, the device and surrounding tissue was removed, and embedded in acrylic for cross-sectioning and histopathological analysis.
(§2) Fluorescent imaging techniques were used on sample cross-sections to determine the doxorubicin concentration and diffusion profile within the tissue surrounding the device. Standard histopathological techniques, such as but not limited to, immunochemical techniques, can be used to measure a desired characteristic within the surrounding tissue to determine effectiveness of a compound. In this instance, cleaved caspase 3 antibodies were used to detect cells undergoing apoptosis.
(§3) Murine A375, BT474, or PC3 tumor models were used to determine whether the device measurement of local microdose response is a satisfactory predictor of a systemic response in different tumor models. Doxorubicin was placed within the microwells of implantable devices. The devices were implanted into A375, BT474, or PC3 tumors on mice. Apoptosis, as measured by cleaved caspase 3 expression, was used to evaluate drug efficacy at 24 hours post implantation or systemic dosing.
(§4) Sunitinib or lapatinib was loaded into microwells in the implantable device that were preloaded with doxorubicin. The device was then implanted into BT474 tumors. The device and surrounding tissue was removed 24 hours later and apoptosis was evaluated by cleaved caspase 3 expression using standard immunohistochemical assays.

MDA-MB231 tumors = assay: Implantable device assay: apoptosis (cleaved caspase 3) after device delivery in MDA-MB231 tumors; type: in vivo, mice
Protocol: as §4, with “Lapatinib” for “Sunitinib or lapatinib”, “MDA-MB231” for “BT474”

PC3 tumors [1] = assay: Implantable device assay: apoptosis (cleaved caspase 3) after device delivery in PC3 tumors; type: in vivo, mice; details: for apoptotic index (AI): device-delivery, 24 hours post implantation
Protocol: as §1, §2, §3
The implantable device assay was tested in murine tumor models (A375 and PC3) for its ability to predict the response of tumors to several other cytotoxic and targeted anti-cancer agents. Vemurafenib is an enzyme inhibitor that specifically targets the BRAF V600E mutation. A375 tumors have this mutation. […] Response to vemurafenib was measured by intratumor apoptotic response using the implantable device assay.
as §4, with “Sunitinib” for “Sunitinib or lapatinib”, “PC3” for “BT474”

A375 tumors [2] = assay: Implantable device assay: apoptosis (cleaved caspase 3) after device delivery in A375 tumors; type: in vivo, mice
Protocol: as §1, §2
Efficacy of doxorubicin at different concentration gradients within the tissue was quantified using a two-step analysis. […]
Second, the effect of the drug on a measurable characteristic in each concentration region is determined. In this example, the amount of cells undergoing apoptosis, as determined by cleaved caspase 3 antibody binding, was evaluated in each doxorubicin concentration region. Efficacy of the doxorubicin released from the microwell is determined by antibody staining of tissue sections divided into regions corresponding to local compound exposure.
Varying percentages (1% and 5% by weight) of doxorubicin was dissolved in PEG having a molecular weight of 1000 or 1450. […] After 20 hours, the device and surrounding tissue was removed and analyzed for doxorubicin concentration and cleaved caspase 3 expression, as previously described.
as §3, with “Doxorubicin was placed within the microwells of implantable devices. The devices were implanted into A375, BT474, or PC3 tumors on mice.” left out, “dosing. […]” for “dosing.”

survivin = assay: Survivin protein expression by immunohistochemistry around device in BT474 tumor; type: in vivo; details: 20 hour exposure, region closest to the microwell
Protocol: (§5) Doxorubicin was loaded into microwells in the device and implanted within a BT474 tumor. After 20 hours, the device and surrounding tissue was removed. Protein expression of cleaved caspase 3 and Poly(ADP-ribose) polymerase (PARP) was evaluated by immunohistochemical analysis. These biomarkers are indicators of apoptosis. Protein expression of Ki67 and survivin was evaluated by immunohistochemical analysis. Ki67 is a biomarker for monitoring reduced cell proliferation rates. Survivin is a biomarker for monitoring reduced inhibition of apoptosis.
(§6) Effect of 20 hour doxorubicin exposure on the expression of the biomarkers was determined as described in Example 4. However, here four concentration gradient regions of approximately 100 μm were determined and evaluated.

[3] = Intratumor concentration of doxorubicin after systemic administration; type: in vivo; details: systemic 8 mg/kg, BT474 bearing mice
Protocol: (§7) Doxorubicin was administered systemically at 8 mg/kg to BT474 bearing mice. Intratumor concentration of doxorubicin was analyzed by standard immunohistochemical and fluorescence techniques previously described and standard in the art. Doxorubicin was loaded into microwells in the device. The device was implanted in a BT474 tumor as in Example 7. After 20 hours, the device and surrounding tissue was excised and doxorubicin concentration in the surrounding tumor tissue was analyzed.

A375 tumors [4] = assay: Local tumor apoptosis (cleaved caspase 3) after systemic dosing in A375 tumors; type: in vivo, mice; details: systemic dosing 8 mg/kg, 24 hours
Protocol: (§8) To compare the efficacy of device delivered doxorubicin to efficacy achieved with systemic delivery, mice bearing A375 or PC3 tumors were systemically administered an 8 mg/kg dose of doxorubicin. Apoptosis, as measured by cleaved caspase 3 expression, was used to evaluate drug efficacy at 24 hours post implantation or systemic dosing.

[5] = Doxorubicin concentration in tumor tissue surrounding the implanted device (fluorescent imaging); type: in vivo, mice; details: mouse, pure doxorubicin in microwell, 20 hours post implantation
Source text: as §2
Varying percentages (1% and 5% by weight) of doxorubicin was dissolved in PEG having a molecular weight of 1000 or 1450. Pure powder doxorubicin and the PEG-doxorubicin formulations were loaded into microwells in the device. The device was implanted into tumors. After 20 hours, the device and surrounding tissue was removed and analyzed for doxorubicin concentration and cleaved caspase 3 expression, as previously described.
Microwells were loaded with pure doxorubicin and the device was implanted into tumor tissue. The device and surrounding tissue was removed at varying times post-implantation. The concentration of doxorubicin in the surrounding tissue was evaluated using immunohistochemical techniques and fluorescent imaging.
as §7

Ki67 = Ki67 protein expression by immunohistochemistry around device in BT474 tumor; type: in vivo; details: 20 hour exposure, region closest to the microwell
Protocol: as §5, §6

PC3 tumors [6] = assay: Local tumor apoptosis (cleaved caspase 3) after systemic dosing in PC3 tumors; type: in vivo, mice; details: systemic dosing 8 mg/kg, 24 hours
Protocol: as §8

[7] = device-delivery, single agent, MDA-MB231 tumors

Compound: Nc1ccn([C@@H]2O[C@H](CO)[C@@H](O)C2(F)F)c(=O)n1 [gemcitabine]
apoptotic index (AI) (BT474 tumors): 2.0% and 2.6%
apoptotic index (AI) (MDA-MB231 tumors; [7]): 21.8%
apoptotic index (AI) (PC3 tumors [1]): 12.5%

Compound: CC[C@@]1(O)C(=O)OCc2c1cc1n(c2=O)Cc2cc3c(CN(C)C)c(O)ccc3nc2-1 [topotecan]
apoptotic index (AI) (BT474 tumors): 2.2%
apoptotic index (AI) (PC3 tumors [1]): 6.3%

Compound: CCN(CC)CCNC(=O)c1c(C)[nH]c(/C=C2\C(=O)Nc3ccc(F)cc32)c1C [sunitinib]
increase of apoptosis by addition to microwells preloaded with doxorubicin (BT474 tumors): 66%
increase of apoptosis by addition to microwells preloaded with doxorubicin (PC3 tumors [1]; 24 hours, vs doxorubicin alone): 330%

Compound: CS(=O)(=O)CCNCc1ccc(-c2ccc3ncnc(Nc4ccc(OCc5cccc(F)c5)c(Cl)c4)c3c2)o1 [lapatinib]
increase of apoptosis by addition to microwells preloaded with doxorubicin (BT474 tumors): 355%
elevation of apoptotic response by addition to doxorubicin in the microwells (MDA-MB231 tumors; MDA-MB-231 tumors, 24 hours, vs doxorubicin alone): 140%
apoptotic index (AI) (MDA-MB231 tumors; lapatinib added to doxorubicin in the microwells, MDA-MB-231 tumors, 24 hours): 17.5%

Compound: CCCS(=O)(=O)Nc1ccc(F)c(C(=O)c2c[nH]c3ncc(-c4ccc(Cl)cc4)cc23)c1F [vemurafenib]
intratumor apoptotic response greater in A375 model as compared to PC3 model (A375 tumors [2]; device-delivery, A375 (BRAF V600E) vs PC3): 250%

intratumor doxorubicin concentration, areas of high concentration [3]: 8 to 13 mg/kg
intratumor doxorubicin concentration, areas of low concentration [3]: 3 to 7 mg/kg
concentration at 20 h ([5]; 0-130 μm from the microwell): 15000 to 20000 ng/g
concentration at 20 h ([5]; approximately 130-200 μm from the microwell): 8000 to 13000 ng/g
concentration at 20 h ([5]; approximately 200-300 μm from the microwell): 3000 to 7000 ng/g
Compound: COc1cccc2c1C(=O)c1c(O)c3c(c(O)c1C2=O)C[C@@](O)(C(=O)CO)C[C@@H]3O[C@H]1C[C@H](N)[C@H](O)[C@H](C)O1 [doxorubicin]
Survivin expression (survivin): undetectable
apoptotic index (AI) (BT474 tumors): 18%
apoptotic index (AI) (MDA-MB231 tumors; [7]): 7.4%
number of cleaved caspase 3 positive cells as percent area of DAB staining (A375 tumors [2]; 20 hours, A375 compared with BT474 and PC3, approximately 100-250 μm from the microwell): greatest number of cells to undergo apoptosis
apoptotic index (AI) (A375 tumors [2]; device-delivery, A375 tumors, 24 hours post implantation): 55%
apoptotic index (AI) (PC3 tumors [1]): 6%
local tumor apoptosis, apoptotic index (AI) (A375 tumors [4]): 34.9%
Ki67 expression (Ki67): undetectable levels
local tumor apoptosis, apoptotic index (AI) (PC3 tumors [6]): 8.7%
